The values below come from US20240109912A1, “TRICYCLIC PYRIMIDINES AS CYCLIN-DEPENDENT KINASE 7 (CDK7) INHIBITORS” (JANSSEN PHARMACEUTICA NV, priority 2020, published 2024).

Series [1] deals with RNA polymerase II Serine 5 phosphorylation in A549 cells overexpressing CDK7 mutant (C312S). Kind of series: Imaging-based cellular RNA PolII Ser5 phosphorylation assay in A549 cells overexpressing CDK7-mutant (C312S). The conditions noted are these: for IC50: Homo sapiens, A549, A549 cells overexpressing CDK7 mutant (C312S), read-out: CDK7_ A549 mutant hCDK7(pIC50) (converted); for CDK7_ A549 mutant hCDK7(pIC50): A549 cells overexpressing CDK7 mutant (C312S). In kind it is cell-based, human. The essentials:
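A stably transduced A549 pool overexpressing CDK7 C312S, a mutant that blocks covalent binding at Cys312, while retaining endogenous wild-type CDK7 was used. Ser5 phosphorylation was measured by imaging, and IC50 values were derived.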

Series [2] relates to RNA polymerase II Serine 5 phosphorylation (CDK7) in A549 cells.
Excerpt: To evaluate inhibition of CDK7 kinase activity, a 384-well automated imaging assay was used. This assay detects Serine 5 phosphorylation on a unique heptapeptide sequence in the C-terminal domain of Rpb1 subunit of RNA polymerase II, the downstream substrate of CDK7. This heptapeptide sequence is repeated up to 52 times in the CTD of Rpb1.
RNA Polymerase II Serine 5 phosphorylation was detected using a specific rabbit Phospho-Rpb1 CTD (Ser5) antibody. A549 adenocarcinoma human alveolar basal epithelial cells were seeded in 20 μl medium (DMEM supplemented with 1% Fetal Bovine Serum (heat inactivated 30′ 56° C.), 2 mM L-glutamine, 50 U/ml penicillin 50 μg/ml streptomycin, 1 mM sodium pyruvate and 50 mM hepes) at 1000 cells/well and cultured in poly-D-lysine coated μclear 384 black plates for 20 hours at 37° C. and 5% CO2.
After incubation cells were challenged with compound for 3 hours at 37° C. and 5% CO2. DMSO was used as high control and as low control 10 μM of the following reference compound was used:
40 nl of test compounds and controls were spotted in cell plates using Echo Liquid Handler (Echo 550, Labcyte). Incubation was followed by 20 minutes fixation with 20 μl 10% formaldehyde at room temperature. Medium/formaldehyde solution was removed, plates were washed 3 times with 30 μl D-PBS (w/o Ca^2+ and Ma^2+) and permeabilization was done by adding 20 μl ice cold methanol for 20 minutes. Cells were washed again 3 times with 30 μl D-PBS and 20 μl blocking buffer (25 ml fetal bovine serum in 500 ml D-PBS) was added for 1 hour.
After removing blocking buffer 20 μl 1/1000 primary antibody rabbit Phospho-Rpb1 CTD (Ser5) antibody was added which binds to the phosphorylated Serine5 of the heptapeptide sequences in the CTD of Rpb1. […] Last, plates were washed 2 times with 30 μl D-PBS and wells were filled with 40 μL D-PBS, plates were sealed (Thermowell sealing tape) and stored at 4° C. until reading. Plates were read with Opera Phenix (Perkin Elmer) with 10× air objective. Data were calculated and analyzed in Phaedra.
IC50 values were calculated using the following formula
Average value of all HC's and all LC's are used for normalizations.
% Effect=100−(sample-LC)/(HC-LC)×100
% Control=(sample/HC)×100
From this an IC50 value can be obtained. An estimate of the slope of the plot in terms of the Hill coefficient is also obtained.
The target of series [3] is CDK7/cyclinH/MAT1 trimeric complex (Homo sapiens (Human), UniProt P50613). The experiment in a line: In vitro CDK7 assay, potency of irreversible covalent inhibitors (kinact/KI). The conditions noted are these: for kinact: read-out: CDK7 (20 nM enz.) (kinact, s^−1), 20 nM enz.
The mark [4] stands for this setting: CDK7 (20 nM enz.) (KI, μM), 20 nM enz.
[5] abbreviates: read-out: CDK7 (20 nM enz.) (kinact/ KI, M^−1*s^−1), 20 nM enz.
The mark [6] stands for this setting: read-out: CDK7 (20 nM enz.) (kobs/[I], M^−1*s^−1), 20 nM enz.

“And” between values parts separate entries of the source, which are not always exact repeats. Identical values can stand only once. Like-named read-outs stand apart in the source and are kept apart here.

Chain of CDK7/cyclinH/MAT1 trimeric complex (P50613 whole entry): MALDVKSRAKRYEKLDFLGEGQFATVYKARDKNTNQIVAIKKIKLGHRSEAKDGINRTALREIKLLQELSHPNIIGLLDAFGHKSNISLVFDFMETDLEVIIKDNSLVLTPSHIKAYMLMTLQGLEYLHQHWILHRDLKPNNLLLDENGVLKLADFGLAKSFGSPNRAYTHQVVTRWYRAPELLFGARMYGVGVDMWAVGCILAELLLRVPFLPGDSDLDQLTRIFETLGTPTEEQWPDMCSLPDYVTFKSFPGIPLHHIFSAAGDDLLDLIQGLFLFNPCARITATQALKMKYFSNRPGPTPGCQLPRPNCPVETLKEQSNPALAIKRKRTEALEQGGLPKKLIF
Chain of CDK7/cyclinH/MAT1 trimeric complex (P51946 whole entry partner): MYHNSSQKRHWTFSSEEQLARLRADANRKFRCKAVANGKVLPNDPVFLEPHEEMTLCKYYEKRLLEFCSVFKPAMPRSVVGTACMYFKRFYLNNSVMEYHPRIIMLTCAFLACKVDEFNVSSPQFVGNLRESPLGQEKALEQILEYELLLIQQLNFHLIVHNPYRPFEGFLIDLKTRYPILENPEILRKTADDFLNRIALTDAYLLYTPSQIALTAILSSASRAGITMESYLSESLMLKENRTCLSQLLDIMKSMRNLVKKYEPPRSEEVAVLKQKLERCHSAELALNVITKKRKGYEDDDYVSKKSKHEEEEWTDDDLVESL
Chain of CDK7/cyclinH/MAT1 trimeric complex (P51948 whole entry partner): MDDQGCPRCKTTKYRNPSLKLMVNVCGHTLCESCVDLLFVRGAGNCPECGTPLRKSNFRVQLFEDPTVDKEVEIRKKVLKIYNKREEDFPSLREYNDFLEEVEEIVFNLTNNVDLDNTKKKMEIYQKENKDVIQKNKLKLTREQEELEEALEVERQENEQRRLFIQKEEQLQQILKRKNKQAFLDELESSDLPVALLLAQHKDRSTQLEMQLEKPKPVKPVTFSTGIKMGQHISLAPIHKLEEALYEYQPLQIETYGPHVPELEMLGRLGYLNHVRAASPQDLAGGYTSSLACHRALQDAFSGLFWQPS

In general, melting point refers to the temperature of the solid-liquid transition. The term kinact denotes the rate constant of inactivation at saturating inhibitor. In turn, `CC#CC(=O)N1CC(N2CCC(c3cc(C)c4c(c3)Nc3ncnc(N5CCS(=O)(=O)CC5)c3CO4)CC2)C1` [compound 151] showed a melting point of 189 °C. Also, the IC50 in series [1] was over 10000 nM. The same compound gave an IC50 in series [2] of 115 nM. Further, the Ki in series [3] (setting [4]) is 0.16 µM. In addition, in series [3], the inactivation rate constant (kinact) was 5.91e-05 s⁻¹. The kinact/KI in series [3] (setting [5]) worked out at 370 M⁻¹ s⁻¹.
`C=CC(=O)N1CC(N2CCC(c3cc(F)c4c(c3)Nc3ncnc(-c5cnn(C)c5)c3[C@@H](C)O4)CC2)C1` (single isomer, unassigned) [compound 52] came in with a melting point of 245 °C. In series [1], the IC50 is over 10000 nM. This compound also had an IC50 in series [2] of 123 nM. Also, the Ki in series [3] (setting [4]) turned out to be 0.0825 µM. Moreover, the kinact in series [3] is 5.9e-05 s⁻¹. Further, in series [3] (setting [5]), the kinact/KI worked out at 714 M⁻¹ s⁻¹.
Take `C=CC(=O)N1CC(N2CCC(c3cc(C)c4c(c3)Nc3ncnc(N5CCS(=O)(=O)CC5)c3CO4)CC2)C1` [compound 101]: the melting point amounted to 169 °C. The IC50 in series [1] is over 10000 nM. In series [3] (20 nM enz.), the “CDK7 (20 nM enz.) (kinact, s^−1)” value amounted to 8.74e-05 s⁻¹ and the “CDK7 (20 nM enz.) (kobs/[I], M^−1*s^−1)” value is 1455 M⁻¹ s⁻¹. Moreover, in series [3] (setting [4]), the Ki is 0.077 µM and 0.0323 µM. Also, the kinact in series [3] came out at 5.87e-05 s⁻¹. For the same compound, in series [3] (setting [6]), the kinact/KI is 1460 M⁻¹ s⁻¹.
In the case of `C=CC(=O)N1CC(N2CCC(c3cc4c(cn3)O[C@@H](C)c3c(ncnc3N3CCOCC3)N4)CC2)C1` (single isomer, unassigned) [compound 62], the melting point amounted to 253 °C. In series [1], the “CDK7_ A549 mutant hCDK7(pIC50)” value is listed as under 5.4 and the IC50 was over 3980 nM. Further, in series [3] (20 nM enz.), the “CDK7 (20 nM enz.) (kinact, s^−1)” value amounted to 4.79e-05 s⁻¹. In addition, the Ki in series [3] (setting [4]) was 0.504 µM and 2.05 µM. In addition, the inactivation rate constant (kinact) in series [3] stood at 5.74e-05 s⁻¹.
`C=CC(=O)N1CC(N2CCC(c3ccc4c(c3)Nc3ncnc(N5CCOCC5)c3CO4)CC2)C1` [compound 1] gave a melting point of 184 °C. Also, the IC50 in series [1] is over 10000 nM. In series [3] (setting [4]), this compound gave a Ki of 0.389 µM. For the same compound, the Ki in series [3] (CDK7 (KI(μM)), Table B) is 0.598 µM and 0.167 µM and 0.608 µM and 0.285 µM. For the same compound, in series [3], the maximal inactivation rate constant (kinact) was 9.1e-05 s⁻¹. The kinact/KI in series [3] (setting [5]) is 234 M⁻¹ s⁻¹.
With `C=CC(=O)N1CCN(C2CN(c3ccc4c(c3)Nc3ncnc(N5CCOCC5)c3CO4)C2)CC1` [compound 4], the melting point was 151 °C. Also, the IC50 in series [1] is over 10000 nM. Moreover, the IC50 in series [2] was over 10000 nM.
`C=CC(=O)N1CCC(N2CC(c3cc(C)c4c(c3)Nc3ncnc(N5CCS(=O)(=O)CC5)c3[C@H](C)O4)C2)CC1` (single isomer, unassigned) [compound 100]: the melting point was 226 °C. Further, in series [1], the “CDK7_ A549 mutant hCDK7(pIC50)” value was 5.25 and 5.24 and 5.16; the IC50 was about 6610 nM.
As to `CC#CC(=O)N1CCC(N2CC(c3cc(C)c4c(c3)Nc3ncnc(N5CCS(=O)(=O)CC5)c3[C@@H](C)O4)C2)CC1` (single isomer, unassigned) [compound 124], the melting point worked out at 292 °C. For the same compound, the IC50 in series [1] was over 10000 nM. Moreover, the IC50 in series [2] is 251 nM and 138 nM.
The compound `CC#CC(=O)N1CCC(N2CC(c3cc(C)c4c(c3)Nc3ncnc(N5CCS(=O)(=O)CC5)c3C(C)O4)C2)CC1` (racemic) [compound 123] displayed a melting point of 218 °C. Also, the IC50 in series [1] was 8320 nM. The compound also had an IC50 in series [2] of 50.1 nM.
The like results for `C=CC(=O)N1CC(N2CC=C(c3ccc4c(c3)Nc3ncnc(N5CCOCC5)c3CO4)CC2)C1` [compound 33] were, in that order, 193 °C, over 10000 nM and 2340 nM.
On the same counts, the results for `C=CC(=O)N1CC[C@H](N2CC(c3cc(C)c4c(c3)Nc3ncnc(N5CCS(=O)(=O)CC5)c3CO4)C2)C1` [compound 90] are 232 °C, about 10000 nM and 251 nM.
The compound `CC#CC(=O)N1CCC(N2CC(c3cc(C)c4c(c3)Nc3ncnc(N5CCS(=O)(=O)CC5)c3[C@H](C)O4)C2)CC1` (single isomer, unassigned) [compound 125] displayed a melting point of 203 °C. Also, in series [1], the “CDK7_ A549 mutant hCDK7(pIC50)” value amounted to 5.26 and the IC50 is 6760 nM. In addition, in series [2], the IC50 is ~17.8 nM and ~26.9 nM.
`CC#CC(=O)N1CCC(C)(N2CC(c3cc(C)c4c(c3)Nc3ncnc(N5CCS(=O)(=O)CC5)c3[C@@H](C)O4)C2)C1` (mixture of isomers) [compound 147] returned a melting point of 244 °C. Besides, the IC50 in series [1] was over 10000 nM. This compound also showed an IC50 in series [2] of 309 nM.
Compound `C=CC(=O)N1CCC(N2CC(c3cc(C)c4c(c3)Nc3ncnc(N5CCS(=O)(=O)CC5)c3[C@@H](C)O4)C2)CC1` (single isomer, unassigned) [compound 102] had a melting point of 227 °C. For the same compound, the IC50 in series [1] is over 10000 nM. For the same compound, the IC50 in series [2] was 186 nM and 174 nM and 151 nM and 148 nM.
For the compound `CC#CC(=O)N1CC(N2CCC(c3cc4c(c(C)n3)O[C@@H](C)c3c(ncnc3N3CCS(=O)(=O)CC3)N4)CC2)C1` (single isomer, unassigned) [compound 140], the IC50 is over 10000 nM in series [1] and 3160 nM in series [2]. The compound also showed a Ki in series [3] (setting [4]) of 2.57 µM. In series [3], the kinact was determined as 8.1e-05 s⁻¹. Further, in series [3] (setting [5]), the kinact/KI stood at 31.5 M⁻¹ s⁻¹.
The like results for `C=CC(=O)N1CC(N2CC[C@@H](c3cc4c(c(C)n3)OCc3c(ncnc3N3CCS(=O)(=O)CC3)N4)C2)C1` [compound 30] were, in that order, over 10000 nM, 1510 nM, 0.175 µM, 5.79e-05 s⁻¹ and 330 M⁻¹ s⁻¹.
On the same counts, the results for `C=CC(=O)N1CC[C@H](N2CC(c3cc(C)c4c(c3)Nc3ncnc(N5CCOCC5)c3CO4)C2)C1` [compound 18] are over 10000 nM, 380 nM, 0.529 µM, 8.2e-05 s⁻¹ and 155 M⁻¹ s⁻¹.
On the same counts, the results for `C=CC(=O)N1CCC(N2CC[C@@H](c3cc(C)c4c(c3)Nc3ncnc(N5CCOCC5)c3CO4)C2)CC1` [compound 25] are over 10000 nM, 741 nM, 1.22 µM, 6.34e-05 s⁻¹ and 52.1 M⁻¹ s⁻¹.
With `CC#CC(=O)N1CC(N2CCC(c3cc(C)c4c(c3)Nc3ncnc(N5CCS(=O)(=O)CC5)c3[C@@H](C)O4)CC2)C1` [compound 148], the IC50 was over 10000 nM in series [1]; 42.7 nM and 60.3 nM and 75.9 nM and 63.1 nM and ~61.7 nM in series [2]. Also, in series [3] (20 nM enz.), the “CDK7 (20 nM enz.) (kinact, s^−1)” value was 6.08e-05 s⁻¹ and 5.32e-05 s⁻¹ and 4.3e-05 s⁻¹. The “CDK7 (20 nM enz.) (kobs/[I], M^−1*s^−1)” value in series [3] (20 nM enz.) was 1230.83 M⁻¹ s⁻¹. Moreover, the Ki in series [3] (setting [4]) was 0.0218 µM and 0.0473 µM and 0.0348 µM and 0.00601 µM. For the same compound, the kinact in series [3] turned out to be 4.04e-05 s⁻¹. For the same compound, the kinact/KI in series [3] (setting [6]) worked out at 952 M⁻¹ s⁻¹.
In the case of `C=CC(=O)N1CC[C@@H](N2CC(c3cc(C)c4c(c3)Nc3ncnc(N5CCS(=O)(=O)CC5)c3CO4)C2)C1` [compound 92], the melting point amounted to 241 °C. Moreover, the IC50 in series [1] is over 10000 nM. The IC50 in series [2] was 427 nM.
With `C=CC(=O)N1CC(N2CC[C@@H](c3cc(C)c4c(c3)Nc3ncnc(N5CCOCC5)c3CO4)C2)C1` [compound 22], the IC50 is over 10000 nM in series [1] and about 617 nM in series [2]. This compound also yielded a Ki in series [3] (setting [4]) of 0.208 µM. Further, the maximal inactivation rate constant (kinact) in series [3] was 6.38e-05 s⁻¹. Besides, the kinact/KI in series [3] (setting [5]) is 307 M⁻¹ s⁻¹.
As to `C=CC(=O)N1CC[C@@H](N2CC(c3cc(F)c4c(c3)Nc3ncnc(N5CCOCC5)c3CO4)C2)C1` (single isomer, unassigned) [compound 55], the IC50 was over 10000 nM in series [1] and 933 nM in series [2]. For the same compound, in series [3] (setting [4]), the Ki was 1.04 µM. Also, the kinact in series [3] turned out to be 6.83e-05 s⁻¹. For the same compound, the kinact/KI in series [3] (setting [5]) is 65.7 M⁻¹ s⁻¹.
In the case of `CC#CC(=O)N1CCC(N2CC=C(c3cc(C)c4c(c3)Nc3ncnc(N5CCS(=O)(=O)CC5)c3CO4)CC2)CC1` [compound 138], the IC50 in series [1] was over 10000 nM; in series [2] it was 46.8 nM. The same compound registered a Ki in series [3] (setting [4]) of 0.0908 µM. Besides, the inactivation rate constant (kinact) in series [3] is 7.15e-05 s⁻¹. In series [3] (setting [5]), the kinact/KI amounted to 788 M⁻¹ s⁻¹.
On the same counts, the results for `C=CC(=O)N1CCC(N2CC(c3cc(C#N)c4c(c3)Nc3ncnc(-c5cnn(C)c5)c3CO4)C2)CC1` [compound 73] are over 10000 nM, 1660 nM, 1.24 µM, 3.75e-05 s⁻¹ and 30.2 M⁻¹ s⁻¹.
As for `[2H]C1(N2CCC(c3cc(C)c4c(c3)Nc3ncnc(N5CCS(=O)(=O)CC5)c3[C@@H](C)O4)CC2)CN(C(=O)C#CC)C1` [compound 160], the figures for the IC50 in series [1] and in series [2] were over 10000 nM and 115 nM, respectively. The Ki in series [3] (setting [4]) was determined as 0.0135 µM. Also, the kinact in series [3] amounted to 9.88e-05 s⁻¹. Further, in series [3] (setting [5]), the kinact/KI is 7340 M⁻¹ s⁻¹.
The like results for `C=CC(=O)N1CC(N2CCC(c3cc(C)c4c(c3)Nc3ncnc(-c5cncc(OCC)c5)c3CO4)CC2)C1` [compound 82] were, in that order, over 10000 nM, 1260 nM, 1.28 µM, 4.27e-05 s⁻¹ and 33.4 M⁻¹ s⁻¹.
In the case of `C=CC(=O)N1CC(N2CCC(c3cc4c(cn3)O[C@H](C)c3c(ncnc3N3CCOCC3)N4)CC2)C1` (single isomer, unassigned) [compound 83], the “CDK7_ A549 mutant hCDK7(pIC50)” value in series [1] was under 5.4. This compound also showed an IC50 in series [2] of 138 nM. Further, in series [3] (20 nM enz.), the “CDK7 (20 nM enz.) (kinact, s^−1)” value worked out at 2.22e-05 s⁻¹ and the “CDK7 (20 nM enz.) (kinact/ KI, M^−1*s^−1)” value is 376.933 M⁻¹ s⁻¹. In series [3] (setting [4]), this compound showed a Ki of 0.059 µM.
